Experimental data from paper PMC3320615, “β-Microseminoprotein Endows Post Coital Seminal Plasma with Potent Candidacidal Activity by a Calcium- and pH-Dependent Mechanism” (PLoS Pathogens, 2012).

Legend:
[1] = Liposome leakage (carboxyfluorescein release); format: biochemical; details: % ± SD of leakage with Triton X-100, CF fluorescence 520 nm, 37°C, at least triplicate
Description: Subsequently, buffer (10 mM Tris, pH 7.4) was added together with 0.1 M carboxyfluorescein (CF) (Sigma, St Louis, MO). After hydration, the lipid mixture was subjected to eight freeze-thaw cycles consisting of freezing in liquid nitrogen and heating to 60°C. Unilamellar liposomes of about Ø140 nm were generated by multiple extrusions through polycarbonate filters (pore size 100 nm) mounted in a […] (Avestin, Ottawa, Canada) at 22°C. Untrapped CF was then removed by two gel filtrations (Sephadex G-50) at 22°C, with Tris buffer as eluent. CF release was determined by monitoring the emitted fluorescence at 520 nm from liposome dispersions (10 mM lipid in 10 mM Tris). An absolute leakage scale was obtained by disrupting the liposomes at the end of the experiment through addition of 0.8 mM Triton X100 (Sigma, St Louis, MO), causing 100% release and dequenching of CF. Although calcein is frequently used for pH-dependent leakage studies, the high charge of this dye has been noted to influence its leakage behavior in the presence of highly cationic peptides. Instead, therefore, CF was used as a leakage marker at both pH 6.0 and 7.4, avoiding pH-dependent fluorescence effects through neutralization prior to probing the limiting leakage in case of pH 6.0 leakage. Throughout, a SPEX-fluorolog 1650 0.22-m double spectrometer (SPEX Industries, Edison, NJ) was used for the liposome leakage assay. Measurements were performed in at least triplicate at 37°C.

[2] = Liposome leakage (carboxyfluorescein release); format: biochemical; details: pH 6.0, % ± SD of leakage with Triton X-100, CF fluorescence 520 nm, 37°C, at least triplicate, DOPC/cholesterol liposomes
Description: Dry lipid films were prepared by dissolving dioleoylphosphatidylcholine (1,2-dioleoyl-sn-Glycero-3-phoshocholine, >99% purity, Avanti Polar Lipids, Alabaster, AL) (60 mol%) (DOPC) and either ergosterol or cholesterol (both >99% purity, Sigma) (40 mol%) in chlorofom, and then removing the solvent by evaporation under vacuum overnight. Subsequently, buffer (10 mM Tris, pH 7.4) was added together with 0.1 M carboxyfluorescein (CF) (Sigma, St Louis, MO). After hydration, the lipid mixture was subjected to eight freeze-thaw cycles consisting of freezing in liquid nitrogen and heating to 60°C. Unilamellar liposomes of about Ø140 nm were generated by multiple extrusions through polycarbonate filters (pore size 100 nm) mounted in a LipoFastminiextruder (Avestin, Ottawa, Canada) at 22°C. Untrapped CF was then removed by two gel filtrations (Sephadex G-50) at 22°C, with Tris buffer as eluent. CF release was determined by monitoring the emitted fluorescence at 520 nm from liposome dispersions (10 mM lipid in 10 mM Tris). An absolute leakage scale was obtained by disrupting the liposomes at the end of the experiment through addition of 0.8 mM Triton X100 (Sigma, St Louis, MO), causing 100% release and dequenching of CF. Although calcein is frequently used for pH-dependent leakage studies, the high charge of this dye has been noted to influence its leakage behavior in the presence of highly cationic peptides. Instead, therefore, CF was used as a leakage marker at both pH 6.0 and 7.4, avoiding pH-dependent fluorescence effects through neutralization prior to probing the limiting leakage in case of pH 6.0 leakage. Throughout, a SPEX-fluorolog 1650 0.22-m double spectrometer (SPEX Industries, Edison, NJ) was used for the liposome leakage assay. Measurements were performed in at least triplicate at 37°C.

[3] = pH 6.0, +EDTA, DOPC/ergosterol liposomes
[4] = pH 6.0, without EDTA, DOPC/ergosterol liposomes

| Molecule | Liposome leakage [1, 3] | Liposome leakage [1, 4] | Liposome leakage ([1]; pH 7.4, +EDTA) | Liposome leakage ([1]; pH 7.4, without EDTA) | Liposome leakage ([2]; +EDTA) | Liposome leakage ([2]; without EDTA) |
| --- | --- | --- | --- | --- | --- | --- |
| RIFKKEDCKYI [MSP66–76, eleven residues at the very tip of the loop (residue 66–76)] | 41±9% | 31±6% | 16±7% | 29±6% | 0% | 0% |
| β-microseminoprotein (natural protein, human, UniProt P08118 21-114, looked up, human β-microseminoprotein (MSP, PSP94), native protein purified from seminal plasma; also called MSP; PSP94) SCYFIPNEGVPGDSTRKCMDLKGNKHPINSEWQTDNCETCTCYETEISCCTLVSTPVGYDKDNCQRIFKKEDCKYIVVEKKDPKKTCSVSEWII | 53±5% | 36±8% | 20±6% | 20±5% | 4±2% | 0% |
